This is an account of results in ChEMBL document CHEMBL1201862, “PubChem BioAssay data set” (2004).

Test systems include SN12C; TK-10; HL-60; DU-145; OVCAR-4; NCI-H522; HOP-92; BT-549; OVCAR-8; CAKI-1; SW-620; EKVX; RPMI-8226; T47D; HCC 2998; UO-31; SF-268; NCI/ADR-RES; Hs-578T.
What all share (experiment): NCI-60 cell line screen, 48 h

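Method: 48-hour compound exposure of cells in 96-well plates, five concentrations, linear interpolation of endpoints. GI50 marks 50% less growth.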 The source made the active and inactive calls. Cut-off read from the data, not from the text of the source: active = GI50 up to about 1.1 µM and inactive = higher. A value given as a limit tells only on which side of the number the result lay.

For `COC1CCC(OC2CC(C3(C)CCC4(CC(O)C(C)C(C(C)/C=C(\C)C(=O)C(C)CC(C)C(=O)O)O4)O3)OC3(OC(C4OC(O)(CO)C(C)CC4C)CC3C)C2C)OC1C` (stereo not drawn), the GI50 in the assay on SN12C was < 0.0319 µM (active); in the assay with TK-10, 0.646 µM (active); with HL-60 it was < 0.01 µM (active); with DU-145 it was < 0.0501 µM (active); in the assay with OVCAR-4, 0.337 µM (active); in the assay with NCI-H522, < 0.01 µM (active). Further, the GI50 in the assay with HOP-92 was 0.482 µM (active); with BT-549, < 0.0324 µM (active); with OVCAR-8, < 0.0368 µM (active); with CAKI-1 it was 0.0982 µM (active); in the assay with SW-620, < 0.0269 µM (active); with EKVX, 0.507 µM (active). Moreover, the GI50 is < 0.01 µM (active) in the assay on RPMI-8226, < 0.01 µM (active) with T47D, < 0.0247 µM (active) in the assay with HCC 2998 and 0.0548 µM (active) in the assay on UO-31.
As for `Clc1ccc2[nH]c(CC3CCCC3)nc2c1`, the GI50 is 16.9 µM (inactive) in the assay with SN12C; 28.5 µM (inactive) in the assay with TK-10; 20.9 µM (inactive) in the assay on DU-145; 14.9 µM (inactive) with OVCAR-4; 5.74 µM (inactive) in the assay on NCI-H522; 12.9 µM (inactive) in the assay with HOP-92. Also, the GI50 was 25.6 µM (inactive) in the assay with OVCAR-8; 3.31 µM (inactive) with CAKI-1; 19.3 µM (inactive) with SF-268; 22.4 µM (inactive) with SW-620; 17.5 µM (inactive) with EKVX; 12.1 µM (inactive) with RPMI-8226. Besides, the GI50 is 13.8 µM (inactive) with NCI/ADR-RES, 17.9 µM (inactive) in the assay with T47D and 20 µM (inactive) in the assay on HCC 2998.
As to `Cc1nc2ccccc2c(=O)n1-c1ccccc1I`, the GI50 in the assay on SN12C, with TK-10, with HL-60, in the assay on OVCAR-4, in the assay with NCI-H522 and with OVCAR-8 was > 100 µM (inactive) each time. Besides, the GI50 is > 100 µM (inactive) in the assay with CAKI-1; > 100 µM (inactive) with SF-268; > 100 µM (inactive) in the assay with SW-620; 70.6 µM (inactive) in the assay on EKVX; > 100 µM (inactive) in the assay on RPMI-8226; > 100 µM (inactive) in the assay with HCC 2998. Further, the GI50 in the assay with UO-31 is 90.2 µM (inactive).
Take `OC[C@H](O)[C@@H](OCc1ccccc1)[C@H](NCc1ccccc1)c1cccs1`: the GI50 in the assay on SN12C, with TK-10, in the assay on HL-60, in the assay on DU-145, in the assay on OVCAR-4 and in the assay with NCI-H522 was > 100 µM (inactive) throughout. The GI50 with HOP-92 is > 100 µM (inactive); with BT-549, > 100 µM (inactive); in the assay with OVCAR-8, > 100 µM (inactive); with CAKI-1, > 100 µM (inactive); in the assay with SF-268, 4.11 µM (inactive); with SW-620, > 100 µM (inactive). The GI50 in the assay with EKVX was > 100 µM (inactive); in the assay on RPMI-8226 it was 92 µM (inactive); in the assay on NCI/ADR-RES it was > 100 µM (inactive); in the assay with T47D it was > 100 µM (inactive); in the assay on UO-31 it was 15.5 µM (inactive).
As for `Cc1cc2nc3c(C(OC4OC(CO)C(O)C(O)C4O)C(O)CO)nn(-c4ccc(F)cc4)c3nc2cc1C` (stereo not drawn), the GI50 with SN12C, with TK-10, with OVCAR-4, in the assay with NCI-H522, with OVCAR-8 and in the assay on SF-268 was > 100 µM (inactive) in each case. Besides, the GI50 in the assay on EKVX, in the assay on RPMI-8226, in the assay on HCC 2998 and in the assay on UO-31 was > 100 µM (inactive) throughout.
`O=[N+]([O-])c1ccc2c(c1)nc1n2C(c2c(F)cccc2F)SC1` (stereo not drawn): the GI50 in the assay on SN12C, in the assay on TK-10, with HL-60, in the assay on DU-145, in the assay on OVCAR-4 and with NCI-H522 was > 100 µM (inactive) throughout. In addition, the GI50 in the assay with HOP-92 was 62.1 µM (inactive); in the assay with OVCAR-8 it was > 100 µM (inactive); with SF-268 it was > 100 µM (inactive); in the assay with Hs-578T, > 100 µM (inactive); in the assay on SW-620 it was > 100 µM (inactive); in the assay on EKVX it was > 100 µM (inactive). The GI50 with RPMI-8226, with NCI/ADR-RES, with T47D and in the assay with HCC 2998 was > 100 µM (inactive) throughout.
In the case of `O=[N+]([O-])c1ccc2nc(/C(=N/Nc3ccccc3)C(O)c3ccc(C(O)/C(=N\Nc4ccccc4)c4nc5ccc([N+](=O)[O-])cc5nc4O)cc3)cnc2c1` (stereo not drawn), the GI50 is 44.1 µM (inactive) with SN12C; > 100 µM (inactive) in the assay on TK-10; 19.3 µM (inactive) in the assay on HL-60; > 100 µM (inactive) with OVCAR-4; 5.64 µM (inactive) in the assay with NCI-H522; > 100 µM (inactive) in the assay with HOP-92. The GI50 in the assay with OVCAR-8 is > 100 µM (inactive); with CAKI-1, 60.4 µM (inactive); in the assay on SF-268, > 100 µM (inactive); in the assay with SW-620, > 100 µM (inactive); in the assay on EKVX, > 100 µM (inactive); with RPMI-8226 it was 19.4 µM (inactive). Moreover, the results for the GI50 in the assay on HCC 2998 and in the assay on UO-31 were 29.1 µM (inactive) and 23 µM (inactive), respectively.
`CC1(C)C(=O)C(=Cc2ccco2)C1=O`: the GI50 with SN12C, with TK-10, with HL-60, in the assay with OVCAR-4, in the assay with NCI-H522 and in the assay on HOP-92 was > 100 µM (inactive) each time. Also, the GI50 in the assay on OVCAR-8, in the assay with CAKI-1, in the assay with SF-268, in the assay on SW-620, in the assay with EKVX and in the assay with RPMI-8226 was > 100 µM (inactive) in each case. In addition, the GI50 in the assay on HCC 2998 and with UO-31 was > 100 µM (inactive) in each case.
As for `COc1ccc(CCNC(=S)NC=C2C(=O)c3ccccc3C2=O)cc1OC`, the GI50 in the assay on SN12C is > 100 µM (inactive); in the assay on HL-60, 93.1 µM (inactive); with DU-145, > 100 µM (inactive); in the assay on OVCAR-4, > 100 µM (inactive); in the assay on NCI-H522 it was > 100 µM (inactive); in the assay on HOP-92, 0.741 µM (active). Besides, the GI50 is > 100 µM (inactive) in the assay with OVCAR-8; > 100 µM (inactive) in the assay with CAKI-1; > 100 µM (inactive) in the assay with SF-268; 14.8 µM (inactive) in the assay on Hs-578T; > 100 µM (inactive) in the assay on SW-620; > 100 µM (inactive) with EKVX. Also, the GI50 in the assay with RPMI-8226 is 17.9 µM (inactive); in the assay with NCI/ADR-RES it was > 100 µM (inactive); in the assay on T47D, > 100 µM (inactive); in the assay with HCC 2998 it was > 100 µM (inactive); with UO-31, 27.7 µM (inactive).
For the compound `CC1=CCC[C@H]2[C@](C)(CC3=CC(=O)C4SCCSC4C3=O)[C@@H](C)CC[C@]12C` (stereo partly drawn), the GI50 in the assay with SN12C is 14.7 µM (inactive); in the assay on DU-145, 24.5 µM (inactive); in the assay on OVCAR-4, 24.6 µM (inactive); with HOP-92, 31.4 µM (inactive); with BT-549, 20.6 µM (inactive); with OVCAR-8, 19.2 µM (inactive). The GI50 in the assay with CAKI-1 is 25.2 µM (inactive); with SW-620, 17.1 µM (inactive); with EKVX, 21.3 µM (inactive); with RPMI-8226 it was 14.1 µM (inactive); in the assay with NCI/ADR-RES, 19.1 µM (inactive); in the assay on T47D it was > 100 µM (inactive). Also, the GI50 in the assay on HCC 2998 was 21.9 µM (inactive); in the assay on UO-31, 17.6 µM (inactive).
Take `CC[C@]1(Cc2ccc(OC)c(OC)c2)[C@@H]2C[C@@H](C(=O)OC)ON2O[C@H](OC2CCCC2(c2ccccc2)c2ccccc2)[C@@H]1OC(C)=O` (stereo partly drawn): the GI50 in the assay with SN12C, in the assay with TK-10, in the assay with DU-145, in the assay with BT-549, in the assay on OVCAR-8 and with CAKI-1 was > 100 µM (inactive) each time. Also, the GI50 in the assay with SF-268, in the assay with SW-620, in the assay on EKVX, in the assay with NCI/ADR-RES, with T47D and in the assay on UO-31 was > 100 µM (inactive) throughout.
As to `CCCNC1=Nc2ccccc2[C@@H]2N(C)c3ccccc3C(C)C[C@]12C` (stereo partly drawn), the GI50 was 37.1 µM (inactive) in the assay with SN12C; 16 µM (inactive) in the assay on TK-10; 33.3 µM (inactive) in the assay on HL-60; 32.4 µM (inactive) in the assay with DU-145; 5.7 µM (inactive) with OVCAR-4; 18.2 µM (inactive) in the assay with NCI-H522. Further, the GI50 in the assay with OVCAR-8 was 14.7 µM (inactive); in the assay on CAKI-1 it was 26.3 µM (inactive); in the assay on SF-268 it was 21.6 µM (inactive); with Hs-578T it was 19.1 µM (inactive); with SW-620, 16.5 µM (inactive); in the assay on EKVX, 32.4 µM (inactive). The GI50 was 18.7 µM (inactive) with RPMI-8226; 22.4 µM (inactive) with NCI/ADR-RES; 20 µM (inactive) in the assay with T47D; 11.1 µM (inactive) in the assay with HCC 2998; 27.9 µM (inactive) in the assay with UO-31.
Turning to `CCn1cc(C(=O)O)c(=O)c2ccc(C)nc21` [NALIDIXIC ACID], the GI50 in the assay with SN12C, in the assay on TK-10, in the assay on HL-60, with DU-145, in the assay with OVCAR-4 and with NCI-H522 was > 100 µM (inactive) each time. Besides, the GI50 in the assay on HOP-92 was 26.9 µM (inactive); with OVCAR-8 it was > 100 µM (inactive); in the assay on CAKI-1, > 100 µM (inactive); in the assay on SF-268 it was > 100 µM (inactive); in the assay with Hs-578T it was > 100 µM (inactive); with SW-620 it was > 100 µM (inactive). The GI50 with EKVX was > 100 µM (inactive); in the assay with RPMI-8226, > 100 µM (inactive); in the assay on NCI/ADR-RES, > 100 µM (inactive); with T47D, > 100 µM (inactive); with HCC 2998, > 100 µM (inactive); in the assay with UO-31, 67 µM (inactive).
